According to ChEMBL document CHEMBL5724806, “Unraveling interindividual differences and functional consequences of gut microbial metabolism of immunosuppressants” (2024):

Assays:
Type in all cases: ADME
[1] = The drug is tested on Lactobacillus gasseri strain: DSM20243 for biotransformation under anaerobic condition. The drug concentrations were measured over 6 timepoints collected between 0 and 12 hours of incubation by liquid-chromatography-coupled mass spectrometry (LC–MS); design: dose 5 uM, timepoint 0, 1.5, 3, 6, 9, 12 hours; details: 5 µM
[2] = (§1) The drug is tested on the gut metagenome community of P-04 with ENA study accession number: PRJEB31790 for biotransformation under microaerobic condition. The drug concentrations were measured over 7 timepoints collected between 0 and 12 hours of incubation by liquid-chromatography-coupled mass spectrometry (LC–MS); design: dose 5 uM, timepoint 0, 0.75, 1.5, 3, 6, 9, 12 hours; details: 5 µM
[3] = as §1, with “P-01” for “P-04”; design: dose 5 uM, timepoint 0, 0.75, 1.5, 3, 6, 9, 12 hours; details: 5 µM
[4] = as §1, with “T-01” for “P-04”, “anaerobic” for “microaerobic”; design: dose 5 uM, timepoint 0, 0.75, 1.5, 3, 6, 9, 12 hours; details: 5 µM
[5] = as §1, with “A-03” for “P-04”, “anaerobic” for “microaerobic”; design: dose 5 uM, timepoint 0, 0.75, 1.5, 3, 6, 9, 12 hours; details: 5 µM
[6] = as §1, with “T-03” for “P-04”; design: dose 5 uM, timepoint 0, 0.75, 1.5, 3, 6, 9, 12 hours; details: 5 µM
[7] = The drug is tested on Lactobacillus paracasei strain: ATCC27092 for biotransformation under anaerobic condition. The drug concentrations were measured over 6 timepoints collected between 0 and 12 hours of incubation by liquid-chromatography-coupled mass spectrometry (LC–MS); design: dose 5 uM, timepoint 0, 1.5, 3, 6, 9, 12 hours; details: lacticaseibacillus paracasei, 5 µM
[8] = The drug is tested on Streptococcus anginosus strain: DSM20563 for biotransformation under microaerobic condition. The drug concentrations were measured over 6 timepoints collected between 0 and 12 hours of incubation by liquid-chromatography-coupled mass spectrometry (LC–MS); design: dose 5 uM, timepoint 0, 1.5, 3, 6, 9, 12 hours; details: 5 µM
[9] = The drug is tested on Streptococcus mitis strain: DSM12643 for biotransformation under anaerobic condition. The drug concentrations were measured over 6 timepoints collected between 0 and 12 hours of incubation by liquid-chromatography-coupled mass spectrometry (LC–MS); design: dose 5 uM, timepoint 0, 1.5, 3, 6, 9, 12 hours; details: 5 µM
[10] = The drug is tested on Bifidobacterium longum strain: DSM20088 for biotransformation under anaerobic condition. The drug concentrations were measured over 6 timepoints collected between 0 and 12 hours of incubation by liquid-chromatography-coupled mass spectrometry (LC–MS); design: dose 5 uM, timepoint 0, 1.5, 3, 6, 9, 12 hours; details: 5 µM
[11] = as §1, with “A-07” for “P-04”, “anaerobic” for “microaerobic”; design: dose 5 uM, timepoint 0, 0.75, 1.5, 3, 6, 9, 12 hours; details: 5 µM
[12] = The drug is tested on Bacteroides caccae strain: DSM19024 for biotransformation under anaerobic condition. The drug concentrations were measured over 6 timepoints collected between 0 and 12 hours of incubation by liquid-chromatography-coupled mass spectrometry (LC–MS); design: dose 5 uM, timepoint 0, 1.5, 3, 6, 9, 12 hours; details: 5 µM
[13] = The drug is tested on Lactobacillus reuteri strain: DSM20016 for biotransformation under microaerobic condition. The drug concentrations were measured over 6 timepoints collected between 0 and 12 hours of incubation by liquid-chromatography-coupled mass spectrometry (LC–MS); design: dose 5 uM, timepoint 0, 1.5, 3, 6, 9, 12 hours; details: limosilactobacillus reuteri, 5 µM
[14] = The drug is tested on Coprococcus comes strain: ATCC27758 for biotransformation under anaerobic condition. The drug concentrations were measured over 6 timepoints collected between 0 and 12 hours of incubation by liquid-chromatography-coupled mass spectrometry (LC–MS); design: dose 5 uM, timepoint 0, 1.5, 3, 6, 9, 12 hours; details: 5 µM
[15] = The drug is tested on Bacteroides stercoris strain: HM 1036 for biotransformation under anaerobic condition. The drug concentrations were measured over 6 timepoints collected between 0 and 12 hours of incubation by liquid-chromatography-coupled mass spectrometry (LC–MS); design: dose 5 uM, timepoint 0, 1.5, 3, 6, 9, 12 hours; details: 5 µM
[16] = The drug is tested on Lactobacillus gasseri strain: DSM20243 for biotransformation under microaerobic condition. The drug concentrations were measured over 6 timepoints collected between 0 and 12 hours of incubation by liquid-chromatography-coupled mass spectrometry (LC–MS); design: dose 5 uM, timepoint 0, 1.5, 3, 6, 9, 12 hours; details: 5 µM
[17] = The drug is tested on Collinsella aerofaciens strain: DSM3979 for biotransformation under anaerobic condition. The drug concentrations were measured over 6 timepoints collected between 0 and 12 hours of incubation by liquid-chromatography-coupled mass spectrometry (LC–MS); design: dose 5 uM, timepoint 0, 1.5, 3, 6, 9, 12 hours; details: 5 µM
[18] = The drug is tested on Gemella morbillorum strain: DSM20572 for biotransformation under microaerobic condition. The drug concentrations were measured over 6 timepoints collected between 0 and 12 hours of incubation by liquid-chromatography-coupled mass spectrometry (LC–MS); design: dose 5 uM, timepoint 0, 1.5, 3, 6, 9, 12 hours; details: 5 µM
[19] = The drug is tested on Eubacterium hallii strain: DSM3353 for biotransformation under anaerobic condition. The drug concentrations were measured over 6 timepoints collected between 0 and 12 hours of incubation by liquid-chromatography-coupled mass spectrometry (LC–MS); design: dose 5 uM, timepoint 0, 1.5, 3, 6, 9, 12 hours; details: anaerobutyricum hallii, 5 µM
[20] = as §1, with “A-09” for “P-04”, “anaerobic” for “microaerobic”; design: dose 5 uM, timepoint 0, 0.75, 1.5, 3, 6, 9, 12 hours; details: 5 µM
[21] = as §1, with “A-02” for “P-04”, “anaerobic” for “microaerobic”; design: dose 5 uM, timepoint 0, 0.75, 1.5, 3, 6, 9, 12 hours; details: 5 µM
[22] = The drug is tested on Streptococcus salivarius strain: DSM20560 for biotransformation under microaerobic condition. The drug concentrations were measured over 6 timepoints collected between 0 and 12 hours of incubation by liquid-chromatography-coupled mass spectrometry (LC–MS); design: dose 5 uM, timepoint 0, 1.5, 3, 6, 9, 12 hours; details: 5 µM
[23] = The drug is tested on Parabacteroides distasonis strain: DSM20701 for biotransformation under anaerobic condition. The drug concentrations were measured over 6 timepoints collected between 0 and 12 hours of incubation by liquid-chromatography-coupled mass spectrometry (LC–MS); design: dose 5 uM, timepoint 0, 1.5, 3, 6, 9, 12 hours; details: 5 µM
[24] = The drug is tested on Ruminococcus gnavus strain: ATCC29149 for biotransformation under anaerobic condition. The drug concentrations were measured over 6 timepoints collected between 0 and 12 hours of incubation by liquid-chromatography-coupled mass spectrometry (LC–MS); design: dose 5 uM, timepoint 0, 1.5, 3, 6, 9, 12 hours; details: mediterraneibacter gnavus, 5 µM
[25] = as §1, with “A-10” for “P-04”, “anaerobic” for “microaerobic”; design: dose 5 uM, timepoint 0, 0.75, 1.5, 3, 6, 9, 12 hours; details: 5 µM
[26] = as §1, with “A-05” for “P-04”; design: dose 5 uM, timepoint 0, 0.75, 1.5, 3, 6, 9, 12 hours; details: 5 µM
[27] = The drug is tested on Eubacterium eligens strain: DSM3376 for biotransformation under anaerobic condition. The drug concentrations were measured over 6 timepoints collected between 0 and 12 hours of incubation by liquid-chromatography-coupled mass spectrometry (LC–MS); design: dose 5 uM, timepoint 0, 1.5, 3, 6, 9, 12 hours; details: lachnospira eligens, 5 µM
[28] = The drug is tested on Lactobacillus paracasei strain: ATCC27092 for biotransformation under microaerobic condition. The drug concentrations were measured over 6 timepoints collected between 0 and 12 hours of incubation by liquid-chromatography-coupled mass spectrometry (LC–MS); design: dose 5 uM, timepoint 0, 1.5, 3, 6, 9, 12 hours; details: lacticaseibacillus paracasei, 5 µM
[29] = The drug is tested on Streptococcus sanguinis strain: DSM20567 for biotransformation under anaerobic condition. The drug concentrations were measured over 6 timepoints collected between 0 and 12 hours of incubation by liquid-chromatography-coupled mass spectrometry (LC–MS); design: dose 5 uM, timepoint 0, 1.5, 3, 6, 9, 12 hours; details: 5 µM
[30] = as §1, with “A-08” for “P-04”; design: dose 5 uM, timepoint 0, 0.75, 1.5, 3, 6, 9, 12 hours; details: 5 µM

- Bacterial Biotransformation [1]: Compound NOT metabolized
- Bacterial Biotransformation [2]: Compound NOT metabolized
- Bacterial Biotransformation [3]: Compound NOT metabolized
- Bacterial Biotransformation [4]: Compound NOT metabolized
- Bacterial Biotransformation [5]: Compound NOT metabolized
- Bacterial Biotransformation [6]: Compound NOT metabolized
- Bacterial Biotransformation [7]: Compound NOT metabolized
- Bacterial Biotransformation [8]: Compound NOT metabolized
- Bacterial Biotransformation [9]: Compound NOT metabolized
- Bacterial Biotransformation [10]: Compound NOT metabolized
- Bacterial Biotransformation [11]: Compound NOT metabolized
- Bacterial Biotransformation [12]: Compound NOT metabolized
- Bacterial Biotransformation [13]: Compound NOT metabolized
- Bacterial Biotransformation [14]: Compound NOT metabolized
- Bacterial Biotransformation [15]: Compound NOT metabolized
- Bacterial Biotransformation [16]: Compound NOT metabolized
- Bacterial Biotransformation [17]: Compound NOT metabolized
- Bacterial Biotransformation [18]: Compound NOT metabolized
- Bacterial Biotransformation [19]: Compound NOT metabolized
- Bacterial Biotransformation [20]: Compound NOT metabolized
- Bacterial Biotransformation [21]: Compound NOT metabolized
- Bacterial Biotransformation [22]: Compound metabolized
- Bacterial Biotransformation [23]: Compound NOT metabolized
- Bacterial Biotransformation [24]: Compound NOT metabolized
- Bacterial Biotransformation [25]: Compound NOT metabolized
- Bacterial Biotransformation [26]: Compound NOT metabolized
- Bacterial Biotransformation [27]: Compound NOT metabolized
- Bacterial Biotransformation [28]: Compound NOT metabolized
- Bacterial Biotransformation [29]: Compound NOT metabolized
- Bacterial Biotransformation [30]: Compound NOT metabolized
Compound: CCOC(=O)[C@H](CCc1ccccc1)N[C@@H](C)C(=O)N1[C@H](C(=O)O)C[C@@H]2CCC[C@@H]21
